Measured values taken from patent US8426606B2, “2′,2-bisthiazole non-nucleoside compounds, preparation methods, pharmaceutical compositions and uses as hepatitis virus inhibitors thereof” (Shanghai Institute of Materia Medica, Chinese Academy of …, priority 2010, dated 2013).
Like-named read-outs stand apart in the source and are kept apart here.

Experiments:
in vitro = assay type: cell-based; conditions: human
Method: The anti-HCV activity assay was performed by using Huh7.5.1 cells (donated by WUHAN INSTITUTE of VIROLOGY, CHINESE ACADEMY OF SCIENCES) infected by HCV (J399E) inserted with enhanced green fluorescent protein (EGFP). The variation of the green fluorescence intensity was recorded on a microplate reader and cytotoxicity was measured at the same time, so as to evaluate the influence of the compound on the replication activity of HCV.
(§1) Huh7.5.1 cells (10% FBS, DMEM) at the concentration of 10^5 cells/ml were inoculated on a 96-well plate (Costar 3904) with 100 μl per well. 24 hours later, the supernatant of culture was sucked out, and 50 μl of virus supernatant with MOI=0.1 was added. 8 hours later, 50 μl of the testing drug was added and 100 μl of culture medium was supplemented. After incubation for 72 hours, the supernatant was sucked out, and read on a fluorescent microplate reader (Ex=488 nm, Em=516 nm). Then each well was added with 20 μl of MTT (5 mg/ml) and additional 50 μl of culture medium. 4 hours later, 100 μl of MTT lysis solution was added. 6 hours later, reading was performed at a wavelength of 570 nm.

HBV = assay: Anti-HBV activity assay: HBV-DNA replication in HepG2.2.15 cells, fluorescent quantitation PCR of culture supernatant; assay type: cell-based, Hepatitis B Virus; conditions: for IC50: HBV-DNA in supernatant on the eighth day, read-out: IC50 (concentration at which 50% of the replication of HBV was inhibited); for SI (bioactivity selective index): anti-HBV
Method: (§2) The anti-HBV activity assay of a specimen compound was performed in HepG2.2.15 cells stably transformed with the whole genome of HBV, including the determination of the cytotoxicity of the specimen compound (CC50) and the effect of the specimen compound on the replication level of HBV-DNA (IC50).
(§3) The Human hepatoma carcinoma cell HepG2.2.15 cell line stably transformed with the whole genome of HBV can stably secrete hepatitis B virosomes (containing DNA) in the supernatant of culture during culture. Both the antiviral activity and the cytotoxicity of the specimen drugs may be determined by detecting the amount of virus DNA secreted into the supernatant of culture by the cells under the intervention of an antiviral drug, in reference to the amount in control group that is the absence of the antiviral drug. A real-time fluorescent quantitation PCR assay was adopted to determine the concentration of a specimen drug at which 50% of the replication of HBV-DNA was inhibited (IC50), and a MTT assay was adopted to determine the concentration of a specimen drug at which 50% cytotoxicity occurs (CC50).
The specimen drug was prepared into a solution having a concentration (400 μM) desired for the experiment before use. Six diluted concentrations were tested for each specimen drug. The clinical anti-hepatitis B virus drug Lamivudine was used as the positive control in experiment so as to determine whether the reaction is normal or not in each experiment.
(§4) HepG2.2.15 cells were inoculated on a 96-well plate at 5×10^5 cells/ml. On the second day, the specimen drug was added. After the culture medium and the specimen drug having the same concentration as above were replaced periodically, on the eighth day, the supernatant of culture was collected to be tested. To the cells on the 96-well plate, MTT (5 mg/ml) is added. 4 hours later, MTT lysis solution was added (100 μl/well). The next day, OD570 was read on a microplate reader. The cytotoxicity of the specimen drug on HepG2.2.15 cells, the influence of specimen drug on cell growth, and the concentration of specimen drug at which 50% of cells were killed (CC50) were calculated in accordance with the OD value.
A proper amount of the supernatant of culture was added into an isovolumic virus extract and mixed uniformly. The resulted mixture was boiled, and then centrifuged for 5 minutes at 10,000 rpm at room temperature. A proper amount of the obtained supernatant was used to perform PCR amplification, and meanwhile four standard samples of HBV-DNA were set up to make a standard curve. The inhibition of each specimen drug at various concentrations against the replication of HBV-DNA was calculated according to the detected replication value of the viral DNA, and then the half inhibition of the specimen drug was calculated to obtain its IC50.

[1] = Cytotoxicity on HepG2.2.15 cells (MTT assay); assay type: cell-based, Human; conditions: human, read-out: CC50 (concentration at which 50% of cells was killed)
Method: as §2, §3, §4

HCV (J399E) = assay: microbe, parasite or virus in culture; assay type: cell-based, Hepatitis C Virus; conditions: for IC50: Hepatitis C virus, Huh-7.5.1, 72 h, read-out: IC50 (concentration at which 50% of the replication of HCV was inhibited); for SI (bioactivity selective index): anti-HCV, Huh7.5.1 cells
Method: The variation of the green fluorescence intensity was recorded on a microplate reader and cytotoxicity was measured at the same time, so as to evaluate the influence of the compound on the replication activity of HCV.
Compounds to be tested were dissolved in DMSO to prepare a stock solution before the test. Upon using, the stock solution was diluted to a desired concentration with DMEM (Dulbecco's Modified Eagle Media, purchased from GibcoBRL company (Life Technologies, Grand Island, N.Y., USA)) containing 10% FBS (fetal bovine serum, purchased from Hyclone company (Logan, Utah, USA)).
Positive control: ribavirin (purchased from Sigma/Aldrich). It was dissolved in DMSO to prepare a stock solution and stored at −20° C. before use, and diluted to a desired concentration upon using.
as §1

[2] = In vivo pharmacokinetic studies in rats (intragastric and intravenous); parameters: species or system SD rats; conditions: rat; for bioavailability: plasma, po, male SD rats, 20 mg/kg intragastric, dosage normalized, calculated according to AUC0-t
Method: (§5) Intragastric Administration Three healthy male SD rats having body weights of 200 g to 250 g were administered with a specimen drug with a dosage of 20 mg/kg and a volume of 10 ml/kg. The rats were fasted for 12 hours before administration and had the freedom to drink water. The venous blood with a volume of 0.3 ml was obtained from the retrobulbar venous plexus of the rats at 0.25 h, 0.5 h, 1.0 h, 2.0 h, 3.0 h, 4.0 h, 5.0 h, 7.0 h, 9.0 h and 24 h after the administration, put in a heparinized tube, and centrifuged for 10 minutes at 3500 rpm to separate the plasma, which was stored at −20° C. to be tested.
as §5, with “Intravenous Injection: Three healthy” for “Intragastric Administration Three healthy”, “dosage of 10 mg/kg and” for “dosage of 20 mg/kg and”, “volume of 5.0 ml/kg. The” for “volume of 10 ml/kg. The”, “rats at 5 min, 15 min, 0.5 h,” for “rats at 0.25 h, 0.5 h,”, “heparinized tube, centrifuged for” for “heparinized tube, and centrifuged for”

HepG2.2.15 cells = assay: Cytotoxicity on HepG2.2.15 cells (MTT assay); assay type: cell-based, Human; conditions: read-out: CC50 (concentration at which 50% of cells was killed)
Method: as §2, §3, §4

Structure (SMILES) | CC50 at 72 h (in vitro) [µM] | IC50 (HBV; Hepatitis B virus) [µM] | SI (bioactivity selective index) (HBV) | CC50 at 6 days [1] [µM] | IC50 (HCV (J399E)) [µM] | SI (bioactivity selective index) (HCV (J399E)) | bioavailability [2] [%] | IC50 (HBV) [µM] | CC50 (HepG2.2.15 cells) [µM] | average oral bioavailability ([2]; in vivo, 10 mg/kg) [%]
CC(C)=Cc1sc(-c2nccs2)nc1C(=O)NCc1ccc(F)cc1 [Compound 373, N-(p-fluorobenzyl)-5-[1-(2-methylpropenyl)]-2′,2-bisthiazole-4-formamide] | 85 | 0.9 | >111.1 | > 100 | 5.7 | 14.9 | 6.9 | – | – | –
C/C(=C\c1sc(-c2nccs2)nc1C(=O)NCc1ccc(F)cc1)CO [Compound 389, N-(p-fluorobenzyl)-5-[1-(3-hydroxy-2-methylpropenyl)]-2′,2-bisthiazole-4-formamide] | 76.5 | 30.2 | >3.3 | > 100 | 6.6 | 11.6 | – | – | – | –
CC(C)C(O)c1sc(-c2nccs2)nc1C(=O)NCc1ccc(F)cc1 (centres unmarked) [Compound 391-1, N-(p-fluorobenzyl)-5-(1-hydroxy-2-methylpropyl)-2′,2-bisthiazole-4-formamide] | 48.6 | 1.63 | 20.9 | 34 | 10.2 | 4.8 | – | – | – | –
CC(C)(O)Cc1sc(-c2nccs2)nc1C(=O)NCc1ccc(F)cc1 [Compound 391-2, N-(p-fluorobenzyl)-5-(2-hydroxy-2-methylpropyl)-2′,2-bisthiazole-4-formamide] | 134 | 5.4 | >18.5 | > 100 | 21.3 | 6.3 | 76.5 | – | – | –
CC(CO)Cc1sc(-c2nccs2)nc1C(=O)NCc1ccc(F)cc1 (centres unmarked) [Compound 391-3, N-(p-fluorobenzyl)-5-(3-hydroxy-2-methylpropyl)-2′,2-bisthiazole-4-formamide] | 28.1 | < 0.41 | >243.9 | > 100 | 9.9 | 2.8 | – | – | – | –
C/C(=C\c1sc(-c2nccs2)nc1C(=O)NCc1ccc(F)cc1)CF [Compound 391-F, N-(p-fluorobenzyl)-5-[1-(2-fluoromethylpropenyl)]-2′,2-bisthiazole-4-formamide] | 84.7 | 12.5 | >8 | > 100 | 6.5 | 13.0 | – | – | – | –
CC(C)C(F)c1sc(-c2nccs2)nc1C(=O)NCc1ccc(F)cc1 (centres unmarked) [Compound 393-1, N-(p-fluorobenzyl)-5-(1-fluoro-2-methylpropyl)-2′,2-bisthiazole-4-formamide] | 40.9 | < 0.41 | >81 | > 33.3 | 7.4 | 5.5 | – | – | – | –
CC(C)(F)Cc1sc(-c2nccs2)nc1C(=O)NCc1ccc(F)cc1 [Compound 393-2, N-(p-fluorobenzyl)-5-(2-fluoro-2-methylpropyl)-2′,2-bisthiazole-4-formamide] | > 33.3 | 0.41 to 33.3 | <81 | > 33.3 | 1.5 | >22.2 | – | – | – | –
COC(c1sc(-c2nccs2)nc1C(=O)NCc1ccc(F)cc1)C(C)C (centres unmarked) [Compound 405-1, N-(p-fluorobenzyl)-5-(1-methoxy-2-methylpropyl)-2′,2-bisthiazole-4-formamide] | 21.4 | 2.6 | >12.8 | > 33.3 | 3.7 | 5.8 | – | – | – | –
CC(C)Cc1sc(-c2nccs2)nc1C(=O)NCc1ccc(F)cc1 [Compound W28F, N-parafluorobenzyl-5-isobutyl-2′,2-bithiazole-4-formamide, reference compound] | – | – | – | – | – | – | – | 2.6 | > 33.3 | 2.80
Nc1ccn([C@@H]2CS[C@H](CO)O2)c(=O)n1 [Lamivudine, reference compound] | – | < 0.16 | >32 | > 5 | – | – | – | – | – | –
CC(C)=Cc1sc(-c2ncc(C)s2)nc1C(=O)NCc1ccc(F)cc1 [Me-373, N-(p-fluorobenzyl)-5′-methyl-5-[1-(2-methylpropenyl)]-2′,2-bisthiazole-4-formamide] | 66.6 | 1.1 | >90.9 | > 100 | 17.4 | 3.8 | – | – | – | –
Cc1cnc(-c2nc(C(=O)NCc3ccc(F)cc3)c(C(O)C(C)C)s2)s1 (centres unmarked) [Me-391-1, N-(p-fluorobenzyl)-5′-methyl-5-(1-hydroxy-2-methylpropyl)-2′,2-bisthiazole-4-formamide] | > 33.3 | 2.9 | >11.5 | > 33.3 | 3.7 | >9 | – | – | – | –
Cc1cnc(-c2nc(C(=O)NCc3ccc(F)cc3)c(C(F)C(C)C)s2)s1 (centres unmarked) [Me-393-1, N-(p-fluorobenzyl)-5′-methyl-5-(1-fluoro-2-methylpropyl)-2′,2-bisthiazole-4-formamide] | > 100 | 0.2 | >500 | > 100 | 6.6 | >15.2 | – | – | – | –
NC(=O)c1ncn([C@@H]2O[C@H](CO)[C@@H](O)[C@H]2O)n1 [Ribavirin, ribavirin, reference compound] | > 200 | – | – | – | 72.4 | >2.8 | – | – | – | –
